Laboratory results as given in paper PMC9684503 (Communications Biology, 2022).
Where “and” joins values, the source holds several entries; their conditions need not be identical. Equal values may be shown once. Where a name gives a salt, the structure may show the parent alone. Read-outs that look alike come from different tables or passages of the source.

Experiments:
[1] = biological target: rat VMAT2 (Rattus norvegicus, UniProt Q01827); experiment: FFN206 uptake assay in transfected Hek293 cells; details: for VMAT2-specific FFN206 uptake relative to DMSO (=1), replicate samples: Fig. 2a source data, 25 μM compound
[2] = biological target: T1, rat VMAT2-His (Rattus norvegicus, UniProt Q01827); experiment: Differential scanning fluorimetry (DSF) with CPM dye: change of melting temperature of purified VMAT2; assay type: binding; details: for ΔTm: Table 1, DSF screening, mean ± SD of triplicates; for ΔTm at 12 µM / ΔTm at 37 µM / ΔTm at 10 µM / ΔTm at 30 µM / ΔTm at 90 µM / ΔTm at 270 µM / ΔTm at 11 µM / ΔTm at 33 µM: Table S2 dose response, read-out: ΔTm; for ΔTm at 12 µM: compound 0,12 µM; for ΔTm at 37 µM: compound 0,37 µM; for ΔTm at 10 µM: compound 10 µM; for ΔTm at 30 µM: compound 30 µM; for ΔTm at 90 µM: compound 90 µM; for ΔTm at 270 µM: compound 270 µM; for ΔTm at 11 µM: compound 1,11 µM; for ΔTm at 33 µM: compound 3,33 µM
T1 construct: The ORF of rat VMAT2 was subcloned into a pFastBac vector; His; made in house; host or cells: Sf9 insect cells (baculovirus)
Protocol: To screen purified VMAT2 by DSF we expressed the rat VMAT2 protein, as VMAT2-His, in SF9 insect cells using the baculovirus expression system. The transporter was solubilized and purified in n-Dodecyl-β-D-maltoside (DDM)/cholesterol hemisuccinate (CHS) micelles by immobilized metal affinity chromatography (IMAC) and size exclusion chromatography (SEC). […] Screening was performed using DSF and the thiol-reactive dye 7-diethylamino-3-(4-maleimidophenyl)-4-methylcoumarin (CPM), an approach that monitors changes to the protein melting temperature (Tm) upon compound binding. Using CPM or other dyes, DSF-based assays have successfully been used in molecular-based screenings[34],[35]. […] DSF screening was performed in 384 well plates using the thiol-sensing dye 7-diethylamino-3-(4-maleimidophenyl)-4-methylcoumarin (CPM) (Merck). […] Protein melting curves were determined using a LightCycler 480 ii RT-PCR system (Roche), with a temperature ramp increasing from 25 to 95 °C at a rate of 2 °C/min. Data analysis was performed using an in-house software that automatically determines the protein midpoint melting temperature (Tm) based on the second derivative of the melting curves or using the HTSDSF explorer as described in ref. [58]. […] 6 μl of this mix was dispensed to each well of 384 well plates using a Multidrop™ Combi Reagent Dispenser (Thermo Scientific). […] All initial hits were then subjected to an initial validation in triplicates with a compound concentration of 200 μM and a ΔTm > 5× the standard deviation (SD) cut off. […] Processing of the data from the primary screening and the concentration-dependent validation was performed as reported.

[3] = biological target: T2, VMAT2 (Rattus norvegicus, UniProt Q01827); experiment: [3H]-DTBZ competition assay in Hek293 cells expressing VMAT2;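 for all read-outs here: HEK293 cells transfected with VMAT2, pretreated 30 min with compound, then given 5 nM [3H]-DTBZ for 20 min at 37 °C, bound label read by scintillation counting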; details: for effect on [3H]-DTBZ binding compared with DMSO control (one-way ANOVA, p < 0.001): 50 μM compound; for [3H]-DTBZ binding relative to no compound (=1), replicate samples: Fig. 3b source data
Protocol: (§1) We preincubated cells expressing VMAT2 with 50 μM compounds and measured [^3H]-DTBZ binding (5 nM) to the sample (Fig. 3a). […] Hek293 cells were grown and transfected with pcDNA3.1 VMAT2-His as described above. Two days after transfection, cells were harvested, washed and transferred to 96 well MultiScreen FB filter plates (Millipore). […] Cells were washed 3 times with ice cold PBS and 50 µl Ultima Gold LLL (PerkinElmer) was added to each well. […] After a 20 min incubation at 37 °C, cells were washed and [^3H] scintillation counting was performed as described above.

[4] = biological target: T2, VMAT2; details: hek293 cells, 50 µM
Protocol: as §1

[5] = biological target: T3, human VMAT1 (Homo sapiens, UniProt P54219); experiment: FFN206 uptake assay in transfected Hek293 cells; assay type: cell-based; details: Table S1, substrate uptake assays in transfected Hek293 cells
T3 construct: expressed in transfected cells; host or cells: Hek293 cells, transient
T3 sequence (P54219 1-525): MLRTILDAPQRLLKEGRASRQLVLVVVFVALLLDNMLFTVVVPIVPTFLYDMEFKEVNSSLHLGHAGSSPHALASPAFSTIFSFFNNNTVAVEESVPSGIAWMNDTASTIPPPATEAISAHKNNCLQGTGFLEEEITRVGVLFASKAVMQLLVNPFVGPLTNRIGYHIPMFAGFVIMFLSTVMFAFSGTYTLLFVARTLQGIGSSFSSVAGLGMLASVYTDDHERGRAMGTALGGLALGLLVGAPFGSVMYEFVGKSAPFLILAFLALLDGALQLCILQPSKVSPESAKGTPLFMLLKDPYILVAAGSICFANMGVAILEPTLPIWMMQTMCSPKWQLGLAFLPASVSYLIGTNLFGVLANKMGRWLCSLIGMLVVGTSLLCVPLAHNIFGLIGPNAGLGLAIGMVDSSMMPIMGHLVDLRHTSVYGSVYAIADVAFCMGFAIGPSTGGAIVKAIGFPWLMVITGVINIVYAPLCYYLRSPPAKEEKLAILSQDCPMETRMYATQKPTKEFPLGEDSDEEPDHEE

[6] = biological target: T4, human VMAT2 (Homo sapiens, UniProt Q05940); experiment: FFN206 uptake assay in transfected Hek293 cells; assay type: cell-based; details: Table S1, substrate uptake assays in transfected Hek293 cells
T4 construct: expressed in transfected cells; host or cells: Hek293 cells, transient

[7] = biological target: rat VMAT2 Q143A (Rattus norvegicus, UniProt Q01827, Q143A); experiment: FFN206 uptake assay, VMAT2 mutant
Protocol: (§2) For activity assays, [^3H]-DTBZ and [^3H]-SMT binding and competition assays (see section below), several VMAT2 mutants were prepared. […] In addition, a selection of rVMAT2 mutants carrying mutations designed from binding modes identified by docking and MD-simulation was prepared in a pcDNA3.1 rVMAT2-Strep tag II plasmid.

[8] = biological target: rat VMAT2 P314A (Rattus norvegicus, UniProt Q01827, P314A); experiment: FFN206 uptake assay, VMAT2 mutant
Protocol: as §2

[9] = test system: rat VMAT2 variants; details: cited from earlier work

T1 sequence (Q01827 whole entry): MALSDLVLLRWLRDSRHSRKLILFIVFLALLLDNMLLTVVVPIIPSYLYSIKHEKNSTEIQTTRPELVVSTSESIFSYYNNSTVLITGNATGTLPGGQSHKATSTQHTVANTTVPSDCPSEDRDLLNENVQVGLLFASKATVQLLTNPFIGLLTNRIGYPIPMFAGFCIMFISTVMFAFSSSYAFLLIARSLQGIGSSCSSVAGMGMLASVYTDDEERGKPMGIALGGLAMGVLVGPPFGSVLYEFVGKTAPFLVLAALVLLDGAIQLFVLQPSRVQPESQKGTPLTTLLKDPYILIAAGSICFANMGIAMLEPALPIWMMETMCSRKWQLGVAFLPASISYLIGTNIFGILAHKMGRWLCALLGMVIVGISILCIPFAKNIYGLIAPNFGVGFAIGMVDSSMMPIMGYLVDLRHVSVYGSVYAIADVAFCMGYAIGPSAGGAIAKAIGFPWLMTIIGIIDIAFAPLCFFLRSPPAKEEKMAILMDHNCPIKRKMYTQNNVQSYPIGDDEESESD
T2 sequence (Q01827 whole entry): as above
rat VMAT2, sequence (Q01827 whole entry): as above
T4 sequence (Q05940 whole entry): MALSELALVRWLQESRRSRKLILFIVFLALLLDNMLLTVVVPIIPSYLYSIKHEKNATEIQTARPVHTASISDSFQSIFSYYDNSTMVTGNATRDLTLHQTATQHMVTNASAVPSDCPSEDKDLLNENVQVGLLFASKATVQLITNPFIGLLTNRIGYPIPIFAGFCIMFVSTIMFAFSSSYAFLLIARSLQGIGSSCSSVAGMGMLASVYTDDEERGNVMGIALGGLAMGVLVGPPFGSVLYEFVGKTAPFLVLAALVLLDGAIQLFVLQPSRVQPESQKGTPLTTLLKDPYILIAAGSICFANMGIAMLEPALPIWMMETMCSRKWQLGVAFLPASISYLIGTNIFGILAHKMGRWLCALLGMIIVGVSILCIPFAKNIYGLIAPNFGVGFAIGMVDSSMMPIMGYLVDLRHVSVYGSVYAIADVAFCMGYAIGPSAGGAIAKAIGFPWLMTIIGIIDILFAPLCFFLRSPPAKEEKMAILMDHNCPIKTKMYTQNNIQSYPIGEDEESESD
rat VMAT2 P314A, sequence (Q01827 whole entry P314A): as the sequence (Q01827 whole entry) above, with P314A counted along it
rat VMAT2 Q143A, sequence (Q01827 whole entry Q143A): as the sequence (Q01827 whole entry) above, with Q143A counted along it

COc1ccc(CC(C)(C)NC[C@H](O)c2cc(O)cc3c2OCC(=O)N3)cc1 [Olodaterol]
IC50 [1]: 4750 ± 1360 nM | FFN206 uptake relative to no compound (=1), replicate samples ([1]; Fig. 2b/2c source data, compound 0.0152 μM, listed as Oldaterol): 1.037 and 1.016 and 1.038 and 1.078 | FFN206 uptake relative to no compound (=1), replicate samples ([1]; Fig. 2b/2c source data, compound 0.1372 μM, listed as Oldaterol): 1.061 and 1.023 and 1.068 and 1.18 | FFN206 uptake relative to no compound (=1), replicate samples ([1]; Fig. 2b/2c source data, compound 0.4115 μM, listed as Oldaterol): 0.9896 and 1.059 and 0.9994 and 0.9917 | FFN206 uptake relative to no compound (=1), replicate samples ([1]; Fig. 2b/2c source data, compound 1.2346 μM, listed as Oldaterol): 0.8954 and 0.9111 and 0.8127 and 1.136 | FFN206 uptake relative to no compound (=1), replicate samples ([1]; Fig. 2b/2c source data, compound 3.7037 μM, listed as Oldaterol): 0.4411 and 0.5591 and 0.475 and 0.4566 | FFN206 uptake relative to no compound (=1), replicate samples ([1]; Fig. 2b/2c source data, compound 11.1111 μM, listed as Oldaterol): 0.3412 and 0.3104 and 0.1707 and 0.3679 | FFN206 uptake relative to no compound (=1), replicate samples ([1]; Fig. 2b/2c source data, compound 100.0000 μM, listed as Oldaterol): 0.0752 and 0.06166 and -0.04341 and -0.00625 | FFN206 uptake relative to no compound (=1), replicate samples ([1]; Fig. 2c source data, compound 0.0017 μM, listed as Oldaterol): 1.069 and 1.105 and 1.094 and 1.258 | ΔTm [2]: 1.09 ± 0.08 oC | effect on [3H]-DTBZ binding compared with DMSO control (one-way ANOVA, p < 0.001) [3]: no statistically significant effect | activity [4]: 95.6 ± 18.6%

COc1ccc2[nH]c([S+]([O-])Cc3ncc(C)c(OC)c3C)nc2n1 (stereo not drawn) [Tenatoprazole]
IC50 [1]: > 10000 nM | VMAT2-specific FFN206 uptake relative to DMSO (=1), replicate samples [1]: 0.8521 and 0.6659 and 1.063 and 0.8968 | inhibition at 25 µM ([1]; HEK293, read-out: inhibitory effect on VMAT2 activity): ≤ 50% | ΔTm [2]: 7.36 ± 0.41 oC | ΔTm at 12 µM [2]: 0.38 °C | ΔTm at 37 µM [2]: 0.24 °C | ΔTm at 10 µM [2]: 4.77 °C | ΔTm at 30 µM [2]: 6.25 °C | ΔTm at 90 µM [2]: 6.56 °C | ΔTm at 270 µM [2]: 6.79 °C | ΔTm at 11 µM [2]: 1.3 °C | ΔTm at 33 µM [2]: 4.85 °C | effect on [3H]-DTBZ binding compared with DMSO control (one-way ANOVA, p < 0.001) [3]: no statistically significant effect | activity [4]: 87.5 ± 8.53%

COc1cc2c(cc1OC)C1CC(=O)C(CC(C)C)CN1CC2 (stereo not drawn) [Tetrabenazine]
IC50 [5]: > 100000 nM | IC50 [6]: 18 nM | ΔTm [2]: 8.17 ± 0.14 oC | ΔTm at 12 µM [2]: 4.89 °C | ΔTm at 37 µM [2]: 5.05 °C | ΔTm at 10 µM [2]: 6.86 °C | ΔTm at 30 µM [2]: 4.27 °C | ΔTm at 90 µM [2]: 4.64 °C | ΔTm at 270 µM [2]: 5.17 °C | ΔTm at 11 µM [2]: 5.52 °C | ΔTm at 33 µM [2]: 5.92 °C

O=C1Cc2cc(CCN3CCN(c4nsc5ccccc45)CC3)c(Cl)cc2N1 [Ziprasidone, Ziprasidone Hydrochloride]
IC50 [5]: 35 nM | IC50 [1]: 39 ± 17 nM | VMAT2-specific FFN206 uptake relative to DMSO (=1), replicate samples [1]: -0.0048 and -0.08665 and -0.06177 and 0.05752 | FFN206 uptake relative to no compound (=1), replicate samples ([1]; Fig. 2b/2c source data, compound 0.0152 μM): 0.7804 and 0.7848 and 0.755 and 0.7991 | FFN206 uptake relative to no compound (=1), replicate samples ([1]; Fig. 2b/2c source data, compound 0.1372 μM): 0.4886 and 0.4837 and 0.4034 and 0.5734 | FFN206 uptake relative to no compound (=1), replicate samples ([1]; Fig. 2b/2c source data, compound 0.4115 μM): 0.4342 and 0.3743 and 0.3683 and 0.4657 | FFN206 uptake relative to no compound (=1), replicate samples ([1]; Fig. 2b/2c source data, compound 1.2346 μM): 0.3953 and 0.3737 and 0.3153 and 0.4191 | FFN206 uptake relative to no compound (=1), replicate samples ([1]; Fig. 2b/2c source data, compound 3.7037 μM): 0.3802 and 0.3604 and 0.2907 and 0.3691 | FFN206 uptake relative to no compound (=1), replicate samples ([1]; Fig. 2b/2c source data, compound 11.1111 μM): 0.4118 and 0.377 and 0.294 and 0.3618 | FFN206 uptake relative to no compound (=1), replicate samples ([1]; Fig. 2b/2c source data, compound 100.0000 μM): 0.3782 and 0.3789 and 0.3057 and 0.3727 | IC50 [6]: 23 nM | IC50 [7]: 354 ± 83 nM | fold increased IC50 vs wild-type ([7]; Q143A): ~10 fold | IC50 [8]: 132 ± 8 nM | fold increased IC50 vs wild-type ([8]; P314A): approx. 3 fold | ΔTm [2]: 2.69 ± 0.12 oC | ΔTm at 12 µM [2]: 0.41 °C | ΔTm at 37 µM [2]: 0.68 °C | ΔTm at 10 µM [2]: 0.6 °C | ΔTm at 30 µM [2]: 0.71 °C | ΔTm at 90 µM [2]: 1.13 °C | ΔTm at 270 µM [2]: 1.82 °C | ΔTm at 11 µM [2]: 0.69 °C | ΔTm at 33 µM [2]: 0.58 °C | effect on [3H]-DTBZ binding compared with DMSO control (one-way ANOVA, p < 0.001) [3]: statistically significantly effect | [3H]-DTBZ binding relative to no compound (=1), replicate samples ([3]; compound 0.0017): 0.8751 and 1.064 and 1.013 and 0.8455 | [3H]-DTBZ binding relative to no compound (=1), replicate samples ([3]; compound 0.0051): 0.8936 and 1.069 and 1.018 and 0.8322 | [3H]-DTBZ binding relative to no compound (=1), replicate samples ([3]; compound 0.0152): 0.7303 and 1.42 and 1.076 and 0.8096 | [3H]-DTBZ binding relative to no compound (=1), replicate samples ([3]; compound 0.0457): 0.8393 and 0.4876 and 0.8108 and 0.8579 | [3H]-DTBZ binding relative to no compound (=1), replicate samples ([3]; compound 0.1372): 1.015 and 0.924 and 0.9381 and 0.7974 | [3H]-DTBZ binding relative to no compound (=1), replicate samples ([3]; compound 0.4115): 0.6748 and 0.8924 and 0.7988 and 0.4363 | [3H]-DTBZ binding relative to no compound (=1), replicate samples ([3]; compound 1.2346): 0.4427 and 0.7246 and 0.4654 and 0.6729 | [3H]-DTBZ binding relative to no compound (=1), replicate samples ([3]; compound 3.7037): 0.6274 and 0.382 and 0.3472 and 0.5985 | [3H]-DTBZ binding relative to no compound (=1), replicate samples ([3]; compound 11.1111): 0.6424 and 0.4197 and 0.5023 and 0.5651 | [3H]-DTBZ binding relative to no compound (=1), replicate samples ([3]; compound 33.3333): 0.4189 and 0.1764 and 0.1269 and 0.541 | [3H]-DTBZ binding relative to no compound (=1), replicate samples ([3]; compound 100.0000 (μM per methods)): 0.3228 and 0.1927 and 0.2304 and 0.2985 | activity [4]: 36.5 ± 7.71%

[3H]‐tetrabenazine
[3H]-tetrabenazine binding [9]: no TBZ binding | [3H]-tetrabenazine binding: reduction [9]: > 90% | [3H]-tetrabenazine binding: reduction in binding [9]: 50% | [3H]-tetrabenazine binding ([9]; variant E313D, ref [3, 4]): no binding
